According to patent publication US20090246208A1, “METHODS FOR PREVENTING AND TREATING CANCER METASTASIS AND BONE LOSS ASSOCIATED WITH CANCER METASTASIS” (Novartis AG, priority 2006, published 2009):

B1: M-CSF (Q20A, V78K): double mutant of M-CSF testing solvent accessible residues in the central portion of helices A and C (protein, UniProt P09603 33-554, looked up, variant Q20A V78K)
Macrophage colony-stimulating …: EEVSEYCSHMIGSGHLQSLARLIDSQMETSCQITFEFVDQEQLKDPVCYLKKAFLLVQDIMEDTMRFRDNTPNAIAIKQLQELSLRLKSCFTKDYEEHDKACVRTFYETPLQLLEKVKNVFNETKNLLDKDWNIFSKNCNNSFAECSSQDVVTKPDCNCLYPKAIPSSDPASVSPHQPLAPSMAPVAGLTWEDSEGTEGSSLLPGEQPLHTVDPGSAKQRPPRSTCQSFEPPETPVVKDSTIGGSPQPRPSVGAFNPGMEDILDSAMGTNWVPEEASGEASEIPVPQGTELSPSRPGGGSMQTEPARPSNFLSASSPLPASAKGQQPADVTGTALPRVGPVRPTGQDWNHTPQKTDHPSALLRDPPEPGSPRISSLRPQGLSNPSTLSAQPQLSRSHSSGSVLPLGELEGRRSTRDRRSPAEPEGGPASEGAARPLPRFNSVPLTDTGHERQSEGSFSPQLQESVFHLLVPSVILVLLAVGGLLFYRWRRRSHQEPQRADSPLEQPEGSPLTQDDRQVELPV

What was measured:
[1] = test system: osteoclasts differentiated from human bone marrow CD34+ cells; experiment: Differentiated osteoclast activity, OsteoLyse Assay Kit (Human Collagen) (FIGS. 18, 19); format: cell-based; conditions: added on day 15, supernatant sampled on day 17
Procedure: The human bone marrow CD34+ cells (Biowhittaker catalog number 2M-101 A, 3×10^5 cells/vial) were induced to differentiate into osteoclasts under the experimental conditions described here. On Day 1, CD34+ cells were thawed from one frozen vial into 10 ml of media (Alpha MEM with 10% FCS, 1×Pen Strep and 1×fungizone) The cells were washed once and re-suspended in 2 ml of media and plate into onto the OsteoLyse plate (OsteoLyse™ Assay Kit (Human Collagen), Cambrex) at 100 ul per well. On day 2, without removing the original media, add to each well 50 ul of 4×CSF-1 to 30 ng/ml final concentration and 50 ul of 4×RANKL (sRANKL, Chemicon catalog #GF091, 10 ug/package) to final concentration of 100 ng/ml. On day 7, add to each well 50 ul of 5×RANKL to final concentration of 100 ng/ml. On day 15, antibodies (either Chir-RX1 or control antibody) or Zometa were added at the indicated concentrations. On day 17, 10 ul of supernatant of the cell culture was sampled and mixed with 200 μl of Fluorophore Releasing Reagent in each well of the black 96-well assay plate (included in the OsteoLyse Assay Kit).

[2] = test system: MDA-MB-231Luc cells; experiment: Combination study: intratibial MDA-MB-231Luc cells in Nu/Nu mice, Faxitron x-ray osteolysis scoring (FIGS. 15-17); format: in vivo
Procedure: Two weeks after intratibial inoculation of 6×10^5 MDA-MB-231Luc cells, Nu/Nu mice were treated with 5A1/5B4 (10 mg/kg once weekly), Zometa (0.03 mg/kg twice weekly) or both antibody and bisphosphonate. Bone lesions were monitored weekly by Faxitron analysis (x-ray technology), and at the end of the study, all animals were subjected to a final x-ray, and the images collected and distributed for scoring of the severity of lesions.
Mean osteolysis scores were calculated from 1) an average of scores from 3 separate volunteer scorers and 2) a group average (originally 10 animals/group).
Osteolysis score based on x-ray image in last day of study:
(§1) 1=Equivocal or minimal lesion with normal cortex architecture;
(§2) 2=Definite lytic lesion with minimal cortex/architecture disruption
(§3) 3=Large lesion(s) with cortex/Architecture disruption
(§4) 4=Gross destruction with no preserved architecture

[3] = test system: osteolytic damage caused by tumor growth at the bony site; experiment: Zometa dose-response study, osteolysis caused by tumor growth at the bony site (x-ray osteolysis score, FIG. 14); format: in vivo, mice
Source text: This Example establishes the dose-dependent, anti-resorptive effects of Zometa (zoledronate) in an animal model (FIG. 14). […] Osteolysis score based on x-ray image in last-day of study (FIG. 14):
as §1, §2, §3, §4

[4] = test system: M-CSF biological activity; conditions: cited from earlier work
[5] = test system: MCSF-R; conditions: cited from earlier work

| Molecule | differentiated osteoclast activity [1] | osteolytic damage caused by tumor growth at the bony site (mean osteolysis scores, FIG. 16) ([2]; 0.03 mg/kg Zometa, 10 mg/kg anti-MCSF antibody, combination regimen, last day of study) | treating osteolysis (single agents) ([2]; antibody 10 mg/kg once weekly, Zometa 0.03 mg/kg twice weekly, treatment from two weeks after inoculation) | severity of lesions in representative faxitron images (FIG. 17) ([2]; compared to untreated animals) | dose response of anti-resorptive effect ([3]; mice treated with increasing concentrations of Zometa) | osteolytic damage caused by tumor growth at the bony site (osteolysis score based on x-ray image) ([3]; ≧0.03 mg/kg Zometa, last day of study, FIG. 14) | biological activity, lower than native M-CSF [4] | receptor-binding activity [5] |
| --- | --- | --- | --- | --- | --- | --- | --- | --- |
| O=P(O)(O)C(O)(Cn1ccnc1)P(=O)(O)O [Zometa, zoledronate] | inhibits differentiated osteoclast activity in a dose-dependent manner | inhibited the osteolytic damage | effective in treating osteolysis | relatively minor lesions | a dose response effect was observed | inhibited the osteolytic damage | – | – |
| B1 | – | – | – | – | – | – | 8-10 fold | correspondingly lower |
